{"source": "patent US20230331679A1", "about": "“NAPHTHALENE MONOIMIDE COMPOUNDS AND METHODS THEREOF” (JAWAHARLAL NEHRU CENTRE FOR ADVANCED SCIENTIFIC RESEARCH, priority 2020, published 2023)", "system": "APP/PS1 and WT mice", "test": "Novel object identification (NOI) test", "assay_type": "in vivo", "description": "In OF test, all the experimental mice were individually allowed to explore a novel platform (45 X 45 cm) and their locomotion activity was monitored for 5 min (Sony HDRCX405 camera) and analyzed using the smart 3 software (Panlab; FIG. 16A). […] The anxiety behaviors of TGR63 treated mice were assessed by the time spent and the entries in the center zone (20 X 20 cm) of OF arena. […] Next, the effect of TGR63 on memory processing, viz., acquisition, consolidation and retrieval were evaluated through NOI test, which has been widely used as a tool to study the neurobiology of memory using the natural tendency of rodents to explore novel objects more than the familiar objects. All the experimental mice were familiarized with two identical objects (familiar objects) in a known habituated arena and allowed to explore a novel and familiar object after 24 and 48 h of familiarization (FIG. 16E). The exploration time with each object was measured using a stopwatch, and the discrimination index (DI) was determined using the formula, (time exploring the novel object - time exploring the familiar) / (time exploring novel + familiar) * 100. […] Similarly, the calculated DI after 48 h was lowest (-7) for AD vehicle cohort compared to both vehicle and TGR63 treated WT cohorts (+43 and +45, respectively) (FIG. 16G). […] The blocking of essential synaptic receptors (NMDA and AMPA) by Aβ aggregation species leading to synaptic dysfunction followed by impairment in hippocampal LTP formation. […] TGR63 treatment ameliorates the memory impairment in APP/PS 1 mice by reducing the toxic amyloid burden from the brain under progressive AD conditions."}
{"smiles": "CN(C)c1ccc(C#Cc2ccc3c4c(cccc24)C(=O)N(CC[N+](C)(C)C)C3=O)cc1", "note": "[TGR63, 2-(6-((4-(dimethylamino)phenyl)ethynyl)-1,3-dioxo-1H-benzo[de]isoquinolin-2(3H)-yl)-N,N,N-trimethylethan-1-aminium]", "values": [{"measurement": "discrimination index (DI)", "setting": "AD TGR63 cohort, after 24 h, AD vehicle -3", "value": "+43"}, {"measurement": "discrimination index (DI)", "setting": "AD TGR63 cohort, after 48 h, AD vehicle -7", "value": "+38"}, {"measurement": "reduction of DI at 48 h compared to 24 h", "setting": "TGR63 treated WT and AD cohorts", "value": "~ 5 units of DI"}, {"measurement": "discrimination index (DI)", "setting": "WT TGR63 cohort, after 24 h, WT vehicle +49", "value": "+50"}, {"measurement": "discrimination index (DI)", "setting": "WT TGR63 cohort, after 48 h, WT vehicle +43", "value": "+45"}]}
